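Following 48 hours of exposure in 96-well plates, responses at five concentrations were used to interpolate endpoints linearly. The concentration for 50% growth inhibition is given as GI50.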 Calls of active or inactive are those of the source. Rule as the data show it: active = GI50 up to about 1.1 µM and inactive = higher.
Assays:
Assay in all cases: growth of human tumour cells (NCI), 48 h
OVCAR-8 = system: OVCAR-8
IGROV-1 = system: IGROV-1
KM12 = system: KM12
UACC-257 = system: UACC-257
SK-MEL-28 = system: SK-MEL-28
DU-145 = system: DU-145
K562 = system: K562
MDA-MB-231 = system: MDA-MB-231
NCI-H23 = system: NCI-H23
T47D = system: T47D
Hs-578T = system: Hs-578T
NCI-H522 = system: NCI-H522
HT-29 = system: HT-29
MCF7 = system: MCF7
CAKI-1 = system: CAKI-1
SF-295 = system: SF-295
COLO 205 = system: COLO 205
NCI/ADR-RES = system: NCI/ADR-RES
RXF 393 = system: RXF 393
Malme-3M = system: Malme-3M

Measured: GI50

O=C(O)CN(CC(=O)O)Cc1cc2c(cc1O)Oc1cc(O)c(CN(CC(=O)O)CC(=O)O)cc1C21OC(=O)c2ccccc21 [OFTASCEINE]
inactive: OVCAR-8 > 100 µM | IGROV-1 > 100 µM | KM12 > 100 µM | UACC-257 > 100 µM | SK-MEL-28 > 100 µM | DU-145 > 100 µM | K562 > 100 µM | MDA-MB-231 > 100 µM | NCI-H23 > 100 µM | T47D > 100 µM | Hs-578T > 100 µM | NCI-H522 > 100 µM | HT-29 > 100 µM | MCF7 > 100 µM | CAKI-1 > 100 µM | SF-295 > 100 µM | COLO 205 > 100 µM | NCI/ADR-RES > 100 µM

C[N+](C)(C)CC1CCCc2ccccc2C1=O (stereo not given)
inactive: OVCAR-8 8.28 µM | IGROV-1 16.6 µM | KM12 9.86 µM | RXF 393 6.28 µM | UACC-257 13.7 µM | SK-MEL-28 18.2 µM | DU-145 > 42.1 µM | K562 2.49 µM | MDA-MB-231 16.3 µM | NCI-H23 17.9 µM | T47D 1.73 µM | Hs-578T 37.8 µM | Malme-3M 5.79 µM | NCI-H522 1.49 µM | MCF7 2.04 µM | CAKI-1 4.71 µM | SF-295 > 40.5 µM | COLO 205 22 µM | NCI/ADR-RES 7.06 µM

CCOC1CN(C)/C(=N\c2cccc3ccccc23)S1 (stereo not given)
inactive: OVCAR-8 > 10 µM | IGROV-1 > 10 µM | KM12 > 10 µM | UACC-257 > 10 µM | SK-MEL-28 > 10 µM | DU-145 > 10 µM | K562 > 10 µM | MDA-MB-231 > 10 µM | NCI-H23 > 10 µM | T47D > 10 µM | Hs-578T > 10 µM | Malme-3M > 10 µM | NCI-H522 > 10 µM | HT-29 > 10 µM | MCF7 > 10 µM | CAKI-1 > 10 µM | SF-295 > 10 µM | COLO 205 > 10 µM | NCI/ADR-RES > 10 µM

CC(C)=NN/C(=N\c1ccc(Cl)cc1)NS(=O)(=O)c1ccc(C)cc1
inactive: OVCAR-8 > 100 µM | IGROV-1 77.4 µM | KM12 85.7 µM | UACC-257 35.2 µM | SK-MEL-28 85.5 µM | DU-145 47.9 µM | K562 69.3 µM | MDA-MB-231 73.1 µM | NCI-H23 > 100 µM | T47D 23.8 µM | Hs-578T > 100 µM | Malme-3M 61.2 µM | NCI-H522 56.8 µM | HT-29 > 100 µM | MCF7 58.5 µM | CAKI-1 62.2 µM | SF-295 35.2 µM | COLO 205 > 100 µM | NCI/ADR-RES 69.3 µM
